Source: patent US6528309B2, “Vacuum-mediated desiccation protection of cells” (The Regents of the University of California, priority 2001, dated 2003)
Where two headings read alike, the source gives them in different places.

Columns and labels:
[1] = system: Basinger human fibroblasts; assay: Drying tolerance of Basinger human fibroblasts with disaccharides and polyols (trypan blue exclusion); format: cell-based; details: for Cell Culture Survival (%): concentration (50 mM or 10% solution), vacuum; for effectiveness in protecting the viability of the cells (in words): trypan blue exclusion
Experimental: (§1) Trypan blue exclusion was done by adding 10 μl of 0.4% trypan blue in 0.85% NaCl (Gibco BRL) to 10 μl of a single cell suspension of trypsinized cells and counting the number of trypan blue positive and negative cells. Colony assays were done by harvesting adherent cells 8-12 hours after rehydration, counting by hemacytometer, and plating either 200 or 300 cells in a 10 cm tissue culture dish. The same number of cells from a non-desiccated control were plated in parallel. Approximately 1 week later, the plates were stained with Giemsa and the colonies were counted.

[2] = system: Basinger fibroblast cells; assay: Cytotoxicity of carbohydrates and polyols (maximum usable concentration)
Experimental: To determine whether any of these molecules have properties that would allow them to substitute for trehalose in promoting desiccation tolerance in mammalian cells, a number of carbohydrates and polyols were systematically studied. Each was tested initially to determine the maximum concentration at which they could be used without causing cytotoxicity. The ability of the different molecules to mediate desiccation tolerance was then tested at the optimal concentration for each.
Thus, in these experiments, Basinger fibroblast cells were tested in long term desiccation experiments (i.e., longer than 5 days of drying). In these experiments, Basinger cells at approximately 75% confluence were exposed to a polyol or disaccharide for 12 hours prior to removal of medium and desiccation under vacuum. Thermal shock was used to introduce the disaccharides or polyols into the cells to produce equal concentrations final of 50 mM in the cultures (with equal numbers of cells). […] FIG. 7 also provides a graphic representation of the results for various test disaccharides and polyols.

12F cells [3] = assay: Desiccation tolerance of 12F cells at different storage temperatures, with trehalose (trypan blue exclusion / FACS); format: cell-based, human; details: for Cell Survival: trehalose 50 mM by thermal shock, dried under vacuum
Experimental: as §1
For thermal shock experiments, trehalose solution (50 mM final concentration) in DMEM and 10% FBS, was added to a pellet of 1×10^6 cells to produce a cell suspension which was then incubated on ice for 5 minutes, and then for 10 minutes in a 37° C. water bath (Daw et al., Cryobiol., 10:126-133 [1973]; and Moore et al., Cell 54:777-785 [1988]). This cycle was repeated twice. For adherent cells, the cells were plated in 6-well plates and grown to 90-95% confluence prior to thermal shock with 50 mM trehalose as described above. These methods are described in more detail in the following Examples. However, it is not intended that the present invention be limited to any particular temperatures used for thermal shock, as it is known in the art that in some cases, cells can be shocked using different temperatures.
In these experiments, the effects of temperature and drying on cell survival were investigated. In addition, the effects of the presence of trehalose on cell survival under different conditions of temperature and drying were investigated. Ten 6-well plates of 12F cells were prepared at about 90-95 confluence. The day prior to the beginning of the drying period, five plates were exposed to thermal shock to introduce trehalose into the cells (as described above). On the first day of the drying period, all of the plates were dried, and the plates were incubated in pairs (i.e., one with trehalose and one without trehalose) at −70° C., −20° C., room temperature, and 37° C., for 4 days.
In additional experiments to determine the effect of temperature on the ability of cells to withstand desiccation, 6-well plates with 12F cells were prepared at approximately 90% confluence, dried under vacuum at room temperature as described above, and stored at −70° C., −20° C., 4° C., 20° C., and 37° C. for 3 days. In these experiments, two plates were used, one included trehalose (50 mM) introduced into the cells using thermal shock, as described above. […] The cells were then rehydrated and the viability was determined by trypan blue exclusion. […] The optimum survival temperature was determined to be about 20° C. (i.e., approximately room temperature). At the other temperatures examined, there were almost no viable cells remaining, as determined by trypan blue exclusion, and none were able to grow and form colonies (results not shown). In these experiments, the presence (“Tre(+)”)/absence (“Tre(−)”) of trehalose appeared to have no impact on the optimum temperature.
No colonies were ever grown from cells maintained in the desiccated state at temperatures other than approximately 20° C.

[4] = system: Basinger human fibroblasts; assay: Cell survival after drying with trehalose combinations and trehalose alone; format: cell-based
Experimental: In this Example, experiments to observe the effects of various combinations of sugars on cell viability are described. The results obtained for these combinations were then compared with the results obtained for trehalose alone. The combinations used were trehalose with glycerol, and trehalose with mannitol. Controls were also tested with no sugars, and trehalose alone. In these experiments Basinger human fibroblasts were used.

Adherent Basinger cells = assay: Trehalose dose response for desiccation tolerance and cytotoxicity; format: cell-based, human; details: 24 hours incubation
Experimental: In these experiments, the effects of trehalose concentration on desiccation tolerance were determined. Adherent Basinger cells were prepared in 6-well plates, and incubated at 37° C., with 10% CO2. When the cells reached 65-70% confluence, the cells were incubated with varying concentrations of trehalose (10 mM, 25 mM, 50 mM, 150 mM, and 500 mM) for 24 hours. The cells were exposed to thermal shock and desiccated as described above.

12F cells [5] = assay: Preliminary vacuum drying experiments; format: cell-based
Basinger cells = assay: Colony (plating efficiency) assay after desiccation and rehydration; format: cell-based, human; details: for ability to mediate desiccation tolerance, singly and together (in words): 3% glycerol and/or 50 mM trehalose, thermal shock, vacuum (FIG. 8); for ability of the cells to form colonies following rehydration: results not shown
Experimental: as §1
To definitively determine the effect of different desiccation protocols, an assay based on colony formation (i.e., “plating efficiency”) was used, as described in the following Examples. In this assay, rehydrated cells were replated at low density and the number of distinct colonies counted. In this way, only rehydrated cells able to undergo cell division were counted as “viable.” The pattern of viability determined by trypan blue exclusion and colony assay were the same (e.g., compare FIG. 2A with FIG. 2B), validating the use of trypan blue to measure the effect of various treatments on cell viability.
In subsequent experiments, trehalose was tested in combination with glycogen, glycerol, and sucrose. As for some anhydrobiotic organisms (e.g., Artemia cysts) glycerol accounts for about 4% of their dry weight and trehalose constitutes up to about 14% of their dry weight, these experiments were conducted to determine the effects of these compounds on cell survival. In this Figure, results are shown for Basinger cells plated in 6-well plates and exposed to 3% glycerol and/or 50 mM trehalose immediately prior to undergoing thermal shock and desiccation under vacuum. After the drying period was complete, media were added and the cells were incubated overnight. The following day, the cells were harvested and plated for viability determination using the colony assay described herein.

12F cells [6] = assay: Effect of trehalose and vacuum on desiccation tolerance of 12F cells; format: cell-based, human; details: trehalose 50 mM, three days dried
Experimental: In this Example, experiments conducted to determine the effect of trehalose and vacuum on desiccation tolerance of 12F cells are described. The 12F cells were prepared at 95% confluence in five 6-well plates. On plates 1 (V+T+) and 3 (V−T+), trehalose (50 mM final concentration) was introduced by thermal shock, as described in above. Medium was then removed from each of the wells, and Plates 1 (V+T+) and 2 (V+T−) were vacuum sealed using the Magic Vac vacuum packaging system (Flaem Nuova) and maintained at room temperature. Plates 3 and 4 were sealed in bags without vacuum and also maintained at room temperature. Three days later, medium (DMEM) was added to the plates, and the plates incubated at 37° C. with 10% CO2 overnight. The next day, the cells were harvested and stained with trypan blue in order to determine the dead/live ratio.
In some experiments, the samples were divided. One portion of the sample was used in the analysis of live/dead cells using trypan blue, as described above, and the second portion was plated into fresh culture media at 25× dilution and incubated until cells grew in the culture. This allowed counting of the live cells based on their “plating efficiency.” This was considered to be the best way to estimate the ratio of dead to alive cells.

12F and Basinger cells = details: human

Compound | Cell Culture Survival (%) ([1]; Day 3 of drying) | Cell Culture Survival (%) ([1]; Day 4 of drying) | Cell Culture Survival (%) ([1]; Day 5 of drying) | Cell Culture Survival (%) ([1]; Day 6 of drying) | effectiveness in protecting the viability of the cells (in words) [1] | further results
OC[C@@H](O)[C@@H](O)[C@H](O)[C@@H](O)CO [Sorbitol] | 29 | 8 | 3.1 | 0.8 | – | –
Dextran | 0.9 | 2.4 | 1.7 | 0.8 | completely ineffective | concentration found to be toxic (very low survival, no growth upon passage) [2]: ≥ 5%
OC[C@@H](O)[C@@H](O)[C@H](O)[C@H](O)CO [Mannitol] | 32 | 11 | 3.1 | 5.4 | – | –
OC[C@H]1O[C@H](O[C@H]2[C@H](O)[C@@H](O)C(O)O[C@@H]2CO)[C@H](O)[C@@H](O)[C@@H]1O (mixture of isomers) [Maltose] | 31 | 17 | 4.2 | 2.5 | – | –
OC[C@H]1O[C@H](O[C@H]2O[C@H](CO)[C@@H](O)[C@H](O)[C@H]2O)[C@H](O)[C@@H](O)[C@@H]1O [Trehalose, D (+) trehalose dihydrate] | 45 | 38 | 12 | 10.5 | – | cells appearing to be "live" (FACS) (12F cells [3]; dried in the presence of trehalose, incubated at −70° C., no growth upon plating): about 4%; survival rate (in words) (12F cells [3]; incubated at room temperature in the presence of trehalose): very high; Cell Survival (12F cells [3]; storage at RT (room temperature)): 34%; Cell Survival (12F cells [3]; storage temperature 4° C.): 2.8%; Cell Survival (12F cells [3]; storage temperature 37° C.): 0.4%; Cell Survival (12F cells [3]; storage temperature −20° C.): 0.7%; Cell Survival (12F cells [3]; storage temperature −70° C.): 4%; Cell Survival ([4]; Day 3): 7.5; Cell Survival ([4]; Day 4): 0.8; Cell Survival ([4]; Day 5): 2.2; Cell Survival ([4]; Day 6): 1.5; trehalose concentration resulting in obvious cytotoxicity (Adherent Basinger cells): above 150 mM; optimal concentration of trehalose for desiccation tolerance (Adherent Basinger cells; thermal shock, desiccation, 10-500 mM tested): 50 mM; trehalose concentration at which cytotoxic effects were observed (12F cells [5]): more than 50 mM; ability to mediate desiccation tolerance, singly and together (in words) (Basinger cells): roughly similar; ability of the cells to form colonies following rehydration (Basinger cells): able to maintain cellular viability; survival rate compared to the controls (in words) (12F cells [6]): much higher survival rate
OC[C@H]1O[C@@](CO)(O[C@H]2O[C@H](CO)[C@@H](O)[C@H](O)[C@H]2O)[C@@H](O)[C@@H]1O [Sucrose] | 39 | 28 | 9.1 | 7.2 | as effective as trehalose | –
OCC(O)CO [glycerol] | 2.6 | 4.8 | 0.7 | 3.1 | – | optimum concentration [2]: 3%; concentration with long-term cytotoxic effect ([2]; human): above 4%; concentration found to be toxic (very low survival, no growth upon passage) ([2]; human, 12 h): ≥ 5%; ability to mediate desiccation tolerance, singly and together (in words) (Basinger cells): roughly similar; ability of the cells to form colonies following rehydration (Basinger cells): able to maintain cellular viability; concentration toxic for cells (12F and Basinger cells): above 5%
Glycogen | 40.6 | 21.5 | 14 | 9.5 | almost equally as effective | –
